From patent US20220211732A1, “PREBIOTIC COMPOSITIONS” (Evonik Operations GmbH, priority 2019, published 2022)

Key:
[1] = test system: human intestinal microbiota; test: SCFA production after omega-3 amino acid salts and controls (Example 2); assay type: cell-based; conditions: salts 1.4 mg/ml, FFA 0.96, Lys 0.49, Arg 0.52, Orn 0.5 mg/ml; for Acetate, change compared to control / Propionate, change compared to control / n-Butyrate, change compared to control: triplicates
Procedure: (§1) To determine the effect of a EPA/DHA lysine salt (EPA/DHA-Lys) on adult colonic microbiota, an intestinal screening model was used (I-screen, TNO, the Netherlands). Therefore, the I-screen model was inoculated with standard human adult fecal microbiota material, which consisted of pooled fecal donations from six healthy adult volunteers (Caucasian, European lifestyle and nutrition). The fecal material was mixed and grown in a fed-batch fermenter for 40 hours to create a standardized microbiota as described previously.
(§2) The intestinal microbiota was cultured in vitro in modified standard ileal efflux medium (SIEM), the composition of which was described by Minekus et al.. All components were supplied by Trititium Microbiology (Veldhoven, The Netherlands). The pH of the medium was adjusted to 5.8.
(§3) For the I-screen fermentations, the pre-cultured standardized fecal inoculum was diluted 50 times in modified SIEM. EPA/DHA-Lys was introduced into the I-screen to final concentrations of 1.4 mg/ml and 1.5 mg/ml, respectively; omega-3 ethyl ester and fish oil at 1.4 mg/ml each. Inulin was added as a control at a final concentration of 4 mg/ml. […] All experiments were carried out in triplicates.
(§4) For the analysis of short-chain fatty acids in exposed material from the I-screen, samples were centrifuged (˜4000 g, 5 min), clear supernatant was filter sterilized (0.45 μm) and a mixture of formic acid (20%), methanol and 2-ethyl butyric acid (internal standard, 2 mg/ml in methanol) was added.
The effects of different omega-3 amino acid salts omega-3-lysine (omega-3-lys), omega-3-arginine (omega-3-arg) and omega-3-ornithine (omega-3-orn) and their respective controls (free fatty acids (FFA), amino acids lysine (lys), arginine (arg) and ornithine (orn)) on SCFA production by an intestinal microbiota were analyzed.

[2] = in vivo; cited from earlier work
human fecal microbiota 1 = test: TIM-2 in vitro colon model, SCFA production, microbiota 1 (Example 3); assay type: cell-based; conditions: for Cumulative production of acetate / Cumulative production of butyrate / Cumulative production of propionate: lumen and dialysate, duplicates
From the text: To confirm the results for omega-3 amino acid salts, using omega-3 lysine as an example, an additional, independent and more advanced model of fermentation by the human colonic microbiota was applied, the TIM-2 model. Next to omega-3 lysine the prebiotic carbohydrate L-rhamnose was also applied. TIM-2 is an abbreviation of TNO's in vitro model-2, an advanced dynamic, computer-controlled in vitro model of the adult human colon. TIM-2 simulates to a high degree the successive dynamic processes in the colon and is predictive for what happens in human individuals. The following in vivo conditions are simulated in this model: body temperature, pH in the lumen, composition and rate of secretion, delivery of a pre-digested substrate from the ‘ileum’ (SIEM), mixing and transport of the intestinal contents, absorption of water and microbial metabolites and presence of a complex, high density, metabolically active, anaerobic fecal microbiota of human origin. The model was set-up and inoculated with the microbiota on the first day. Following an overnight adaptation period in SIEM, the test-products were fed at final concentrations of 1.4 mg/ml EPA/DHA-Lys or 1 mg/ml L-rhamnose in SIEM during an intervention period of 72 hrs. Cultivation in SIEM without any additional substance served as control condition. Samples were taken from the lumen and the dialysate every 24 hrs (t0, t24, t48 and t72) to study the metabolic activity of the gut microbiota (SCFA production) and changes in composition of the gut microbiota (16S rRNA gene analysis). Samples were analyzed for SCFA by ion-chromatography. […] The order of Pr/Ac for the 72 h treatments is control (SIEM)<L-rhamnose<EPA/DHA-Lys (ω-3)<L-rhamnose+EPA/DHA-Lys (ω-3).

human fecal microbiota 2 = test: TIM-2 in vitro colon model, SCFA production, microbiota 2 (Example 6); assay type: cell-based; conditions: for Cumulative production of acetate / Cumulative production of butyrate / Cumulative production of propionate: lumen and dialysate, duplicates
From the text: TIM-2 is an abbreviation of TNO's in vitro model-2, an advanced dynamic, computer-controlled in vitro model of the adult human colon. TIM-2 simulates to a high degree the successive dynamic processes in the colon and is predictive for what happens in human individuals. The following in vivo conditions are simulated in this model: body temperature, pH in the lumen, composition and rate of secretion, delivery of a pre-digested substrate from the ‘ileum’ (SIEM), mixing and transport of the intestinal contents, absorption of water and microbial metabolites and presence of a complex, high density, metabolically active, anaerobic fecal microbiota of human origin.
The model was set-up and inoculated with the microbiota on the first day. Following an overnight adaptation period in SIEM, the test-products were fed at final concentrations of 1.4 mg/ml EPA/DHA-Lys or 1 mg/ml L-rhamnose in SIEM during an intervention period of 72 hrs. Cultivation in SIEM without any additional substance served as control condition.
Samples were taken from the lumen and the dialysate every 24 hrs (t0, t24, t48 and t72) to study the metabolic activity of the gut microbiota (SCFA production) and changes in composition of the gut microbiota (16S rRNA gene analysis).
Samples were analyzed for SCFA by ion-chromatography.
A second TIM-2 study was performed, using conditions as described under Example 3 but applying a different human fecal microbiota (termed microbiota 2), to assess whether the observed effects are dependent on the initial microbiota composition.
T1=EPA/DHA-Lys (ω-3); T2=L-rhamnose.

[3] = cited from earlier work
human fecal microbiota = test: I-screen intestinal screening model, SCFA production (Example 1); assay type: cell-based; conditions: 24 h incubation, mean of triplicates
Procedure: as §1, with “previously. These standard adult gut microbiota sets were stored at −80° C. in 12% glycerol.” for “previously.”
as §2, §3, §4

## N=C(N)NCCC[C@H](N)C(=O)O [Arg, L-arginine]
[1]
  Propionate/acetate ratio: 0.40
  Acetate, change compared to control: +8.29 mM
  Propionate, change compared to control: +2.02 mM
  n-Butyrate, change compared to control: +0.71 mM

## NCCCC[C@H](N)C(=O)O [Lys, L-lysine]
[1]
  Propionate/acetate ratio: 0.40
  Acetate, change compared to control: +8.81 mM
  Propionate, change compared to control: +2.12 mM
  n-Butyrate, change compared to control: +0.29 mM

## NCCC[C@H](N)C(=O)O [Orn, L-ornithine]
[1]
  Propionate/acetate ratio: 0.36
  Acetate, change compared to control: +10.15 mM
  Propionate, change compared to control: +1.74 mM
  n-Butyrate, change compared to control: +0.19 mM

## CC(=O)O [acetate]
[2]
  Systemic availability of colonic SCFA: ~36%

## CCCC(=O)O [butyrate]
[2]
  Systemic availability of colonic SCFA: ~2%

## C[C@H](O)[C@H](O)[C@@H](O)[C@@H](O)C=O [rhamnose, L-rhamnose]
Human fecal microbiota 1; 0 h
  Cumulative production of acetate: 0.00 mmol
  Cumulative production of butyrate: 0.00 mmol
  Cumulative production of propionate: 0.00 mmol
Human fecal microbiota 1; 24 h
  Pr/Ac (propionate-to-acetate ratio): 0.57
  Cumulative production of acetate: 25.30 mmol
  Cumulative production of butyrate: 15.69 mmol
  Cumulative production of propionate: 14.30 mmol
Human fecal microbiota 1; 48 h
  Pr/Ac (propionate-to-acetate ratio): 0.56
  Cumulative production of acetate: 56.28 mmol
  Cumulative production of butyrate: 35.02 mmol
  Cumulative production of propionate: 31.64 mmol
Human fecal microbiota 1; 72 h
  Pr/Ac (propionate-to-acetate ratio): 0.56
  Cumulative production of acetate: 81.62 mmol
  Cumulative production of butyrate: 52.10 mmol
  Cumulative production of propionate: 45.41 mmol
Human fecal microbiota 1; microbiota 1, average
  Ratio of SCFA: acetate as percentage of acetate + propionate + butyrate: 51.1%
  Ratio of SCFA: butyrate as percentage of acetate + propionate + butyrate: 28.1%
  Ratio of SCFA: propionate as percentage of acetate + propionate + butyrate: 20.8%
Human fecal microbiota 2; 0 h
  Cumulative production of acetate: 0.00 mmol
  Cumulative production of butyrate: 0.00 mmol
  Cumulative production of propionate: 0.00 mmol
Human fecal microbiota 2; 24 h
  Pr/Ac (propionate-to-acetate ratio): 0.57
  Cumulative production of acetate: 25.30 mmol
  Cumulative production of butyrate: 15.69 mmol
  Cumulative production of propionate: 14.30 mmol
Human fecal microbiota 2; 48 h
  Pr/Ac (propionate-to-acetate ratio): 0.56
  Cumulative production of acetate: 56.28 mmol
  Cumulative production of butyrate: 35.02 mmol
  Cumulative production of propionate: 31.64 mmol
Human fecal microbiota 2; 72 h
  Pr/Ac (propionate-to-acetate ratio): 0.56
  Cumulative production of acetate: 81.62 mmol
  Cumulative production of butyrate: 52.10 mmol
  Cumulative production of propionate: 45.41 mmol
Human fecal microbiota 2; microbiota 2, average
  Ratio of SCFA: acetate as percentage of acetate + propionate + butyrate: 45.7%
  Ratio of SCFA: butyrate as percentage of acetate + propionate + butyrate: 29.0%
  Ratio of SCFA: propionate as percentage of acetate + propionate + butyrate: 25.3%
[3]; acute intake of 25 g L-rhamnose
  Circulating propionate after L-rhamnose: significant increase
[3]; up to 25.5 g L-rhamnose/day for seven days
  Serum propionate after L-rhamnose: no increase

## Inulin
Human fecal microbiota
  n-Butyrate, change compared to control: +0.46 mM
Human fecal microbiota; controls ~8 mM propionate
  Propionate, change compared to control: +0.03 mM
Human fecal microbiota; controls ~40 mM acetate
  Acetate, change compared to control: +5.87 mM
